Laboratory results published in patent publication US10392630B2, “Plants having increased tolerance to herbicides” (BASF AGRO B.V., priority 2013, dated 2019).
Residue numbers refer to the chain shown, from its start.

Columns and labels:
Experiment in all cases: biochemical
[1] = molecular target: T1, Amaranthus mutant PPO (AMARE) (Amaranthus tuberculatus, UniProt Q0NZW9, F420I/R128A)
T1 sequence (Q0NZW9 1-534 R128A/F420I): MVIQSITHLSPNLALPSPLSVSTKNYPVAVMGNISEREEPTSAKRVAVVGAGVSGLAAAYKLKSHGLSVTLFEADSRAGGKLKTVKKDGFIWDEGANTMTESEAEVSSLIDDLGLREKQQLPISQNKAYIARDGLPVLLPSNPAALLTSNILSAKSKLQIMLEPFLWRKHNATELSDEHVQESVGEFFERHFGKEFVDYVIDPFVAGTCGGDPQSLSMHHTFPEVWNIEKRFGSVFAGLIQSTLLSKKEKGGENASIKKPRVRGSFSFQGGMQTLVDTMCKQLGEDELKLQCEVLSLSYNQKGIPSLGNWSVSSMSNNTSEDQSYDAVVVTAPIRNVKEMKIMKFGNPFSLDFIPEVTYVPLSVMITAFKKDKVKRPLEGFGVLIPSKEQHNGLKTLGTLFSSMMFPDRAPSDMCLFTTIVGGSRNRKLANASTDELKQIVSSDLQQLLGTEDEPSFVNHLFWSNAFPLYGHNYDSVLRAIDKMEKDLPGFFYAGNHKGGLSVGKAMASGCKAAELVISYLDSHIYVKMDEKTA

[2] = molecular target: T2, Amaranthus mutant PPO (AMARE) (Amaranthus tuberculatus, UniProt Q0NZW9, F420M/R128I)
T2 sequence (Q0NZW9 1-534 R128I/F420M): T1 sequence (Q0NZW9 1-534 R128A/F420I) with A128I, I420M

[3] = molecular target: T3, Amaranthus mutant PPO (AMARE) (Amaranthus tuberculatus, UniProt Q0NZW9, F420M/R128L)
T3 sequence (Q0NZW9 1-534 R128L/F420M): T1 sequence (Q0NZW9 1-534 R128A/F420I) with A128L, I420M

[4] = molecular target: T4, Amaranthus mutant PPO (AMARE) (Amaranthus tuberculatus, UniProt Q0NZW9, F420L/R128I)
T4 sequence (Q0NZW9 1-534 R128I/F420L): T1 sequence (Q0NZW9 1-534 R128A/F420I) with A128I, I420L

[5] = molecular target: T5, Amaranthus mutant PPO (AMARE) (Amaranthus tuberculatus, UniProt Q0NZW9, F420I/R128I)
T5 sequence (Q0NZW9 1-534 R128I/F420I): T1 sequence (Q0NZW9 1-534 R128A/F420I) with A128I

C#CCN1C(=O)C(F)(F)Oc2cc(F)c(-n3c(=O)n(C)c(=S)n(C)c3=O)cc21 [BAS 850H]
IC50 [1]: 24.6 nM | IC50 [2]: 246 nM | IC50 [3]: 246 nM | IC50 [4]: 466 nM | IC50 [5]: 433 nM

CC(C)N(C)S(=O)(=O)NC(=O)c1cc(-n2c(=O)cc(C(F)(F)F)n(C)c2=O)c(F)cc1Cl [saflufenacil]
IC50 [1]: > 10000 nM | IC50 [2]: > 10000 nM | IC50 [3]: > 10000 nM | IC50 [4]: > 10000 nM | IC50 [5]: > 10000 nM
